Experiments:
Alternaria solani = test: Activity against early blight of tomato caused by Alternaria solani, protective use; assay type: in vivo; settings: 250 ppm spray, tomato cultivar Large Fruited St. Pierre, visual rating after 5 days, untreated 80%
Method: (§1) For use examples 1 and 2, the active compounds were formulated as a stock solution 15 with 0.25% by weight of active compound in acetone or dimethyl sulfoxide (DMSO). 1% by weight of the emulsifier Uniperol® EL (wetting agent having emulsifying and dispersant action based on ethoxylated alkylphenols) was added to this solution, and the mixture was diluted with water to the desired concentration.
Activity Against Early Blight of Tomato Caused by Alternaria solani, Protective Use
Leaves of potted plants of the tomato cultivar “Large Fruited St. Pierre” were sprayed to runoff point with an aqueous suspension having the concentration of active compound stated below. The next day, the leaves were infected with an aqueous spore suspension of Alternaria solani in a 2% biomalt solution having a density of 0.17×10^6 spores/ml. The plants were then placed in a water-vapor-saturated chamber at 20-22° C. After 5 days, the blight on the untreated but infected control plants had developed to such an extent that the infection could be determined visually in %.

[1] = system: Erysiphe [syn. Blumeria] graminis forma specialis tritici; test: Activity against mildew of wheat caused by Erysiphe [syn. Blumeria] graminis forma specialis tritici, protective use; assay type: in vivo; settings: 250 ppm spray, wheat seedlings cultivar Newton, visual rating after 7 days, % of entire leaf area, untreated 90%
Method: Activity Against Mildew of Wheat Caused by Erysiphe [syn. Blumeria] graminis form a Specialis tritici, Protective Use
Leaves of wheat seedlings, grown in pots, of the cultivar “Newton” were sprayed to runoff point with an aqueous suspension having the concentration of active compound stated below. The suspension or emulsion was prepared from a stock solution comprising 5% of active compound, 94% of cyclohexanone and 1% of emulsifier (Tween 20) by dilution with water. 3-5 hours after the spray coating had dried on, the […] of wheat (Erysiphe [syn. Blumeria] graminis form a specialis. tritici). The test plants were then placed in a greenhouse at 20-24° C. and 60-90% relative atmospheric humidity. After 7 days, the extent of the mildew development was determined visually in % infection of the entire leaf area.

Plasmopara viticola = test: Activity against Peronospora of grapevines caused by Plasmopara viticola, protective use; assay type: in vivo; settings: 250 ppm spray, grapevine cultivar Müller-Thurgau, visual rating of leaf undersides, untreated 90%
Method: as §1
Activity against Peronospora of Grapevines caused by Plasmopara viticola, Protective Use
Leaves of potted grapevines of the cultivar “Müller-Thurgau” were sprayed to runoff point with an aqueous suspension having the concentration of active compound stated below. The next day, the undersides of the leaves were inoculated with an aqueous zoospore suspension of Plasmopara viticola. The grapevines were then initially placed in a water-vapor-saturated chamber at 24° C. for 48 hours and then in a greenhouse at 20-30° C. for 5 days. After this period of time, the plants were again placed in a humid chamber for 16 hours to promote sporangiophore eruption. The extent of the development of the infection on the undersides of the leaves was then determined visually.

Compound | Infection [%] at 250 ppm (Alternaria solani) [%] | Infection [%] at 250 ppm [1] [%] | Infection [%] at 250 ppm (Plasmopara viticola) [%] | melting point [°C]
CCC(C)C(C)c1c(-c2ccc(F)cc2C)c(C)nn2cnnc12 (mixture of isomers) [Example 16] | 20 | – | – | –
CCCC(C)c1c(-c2ccc(F)cc2C)c(C)nn2cnnc12 (racemic) [Example 13] | 10 | – | – | –
CCCC(C)c1c(-c2ccc(C)cc2C)c(C)nn2cnnc12 (racemic) [Example 14] | – | 20 | – | –
CCCC(C)c1c(-c2ccc(F)cc2F)c(C)nn2cnnc12 (single isomer, unassigned) [Example 18] | – | 7 | 10 | –
CCCC(C)c1c(-c2ccc(C)cc2F)c(C)nn2cnnc12 (single isomer, unassigned) [Example 19] | – | 20 | – | –
CCC(C)C(C)c1c(-c2ccc(C)cc2F)c(C)nn2cnnc12 (single isomer, unassigned) [Example 20] | – | 5 | – | –
CCCC(C)c1c(-c2ccc(F)cc2F)c(C)nn2cnnc12 (single isomer, unassigned) [Example 21] | – | 3 | 3 | –
CCC(C)C(C)c1c(-c2ccc(C)cc2F)c(C)nn2cnnc12 (single isomer, unassigned) [Example 22] | – | 7 | – | –
Cc1nn2cnnc2c(CC(C)C)c1-c1ccccc1 [Example 1, 7-Phenyl-8-isobutyl-6-methyl-[1,2,4]triazolo[4,3-b]pyridazine] | 10 | – | 20 | –
Cc1cc(F)ccc1-c1c(C)nn2cnnc2c1CC(C)C [Example 2] | 15 | – | 0 | –
CCCCc1c(-c2ccc(F)cc2C)c(C)nn2cnnc12 [Example 3] | 25 | – | 0 | –
CCCCc1c(-c2ccc(F)cc2F)c(C)nn2cnnc12 [Example 4] | 10 | – | 0 | –
CCCCc1c(-c2ccc(C)cc2F)c(C)nn2cnnc12 [Example 5] | – | – | 0 | –
Cc1nn2cnnc2c(CC(C)C)c1-c1ccc(F)cc1F [Example 6] | – | – | 0 | –
Cc1ccc(-c2c(C)nn3cnnc3c2CC(C)C)c(F)c1 [Example 7] | 20 | – | – | –
Cc1nn2cnnc2c(C2CCCCC2)c1-c1ccc(F)cc1F [Example 8] | 0 | – | 0 | –
Cc1ccc(-c2c(C)nn3cnnc3c2C2CCCCC2)c(C)c1 [Example 9] | – | – | 20 | –
Cc1cc(F)ccc1-c1c(C)nn2cnnc2c1C1CCCCC1 [Example 10] | – | – | 0 | –
Cc1nn2cnnc2c(CCC(C)(C)C)c1-c1ccc(F)cc1F [Example 11] | 20 | – | 0 | –
Cc1ccc(-c2c(C)nn3cnnc3c2CCC(C)(C)C)c(F)c1 [Example 12] | 3 | – | 3 | –
Cc1ccc(-c2c(C)nn3cnnc3c2CCC(C)(C)C)c(C)c1 [Example 15] | – | 20 | 3 | –
CC1CCN(c2c(-c3c(F)cccc3Cl)c(Cl)nc3nnnn23)CC1 [Example 23, 5-Chloro-6-(2-chloro-6-fluorophenyl)-7-(4-methylpiperidin-1-yl)-tetrazolo[1,5-a]pyrimidine] | – | 15 | – | –
Cc1nc2c(C#N)ncn2c(N[C@H](C)C(C)C)c1-c1c(F)cc(F)cc1F [Example 36] | 7 | – | – | –
Cc1nn2ncnc2c(CC(C)C)c1-c1ccc(F)cc1F [Example 38, 7-(2,4-Difluorophenyl)-8-isobutyl-6-methyl-[1,2,4]triazolo[1,5-b]pyridazine] | – | – | – | 103 to 105

Reference: patent publication US20060199801A1, “Heterobicyclic compounds used as fungicides” (priority 2003, published 2006)
